Results on one molecule are retold here after US7935507B2, “Method for testing substances on biomatrices” (Humanautocell GmbH, priority 2004, dated 2011).

This data set concerns CYP2E1. As to conditions: tissue equivalent strips (hepatocytes + Langerhan's islet cells on matrix) in William's medium E, 37° C.; benzene 0.005, 0.01, 0.02, 0.05 and 0.1 mM, several hours; compared with basic activity before addition.

The structures appear in SMILES notation.

Protocol: The strips are placed in approximately 1 liter of William's medium E, which is agitated. Adequate gas exchange is ensured, and the temperature of the medium is maintained at 37° C.
After the system has equilibrated, a first strip of tissue equivalent is removed and the CYP2E1 activity thereon is determined via the EFCOD test method. Using the said method, the CYP2E1mediated O-dealkylation of 7-ethoxy-4-trifluoromethylcoumarin to 7-hydroxy-4-trifluoromethylcoumarin is determined.
The benzene is allowed to act for several hours, while maintaining the medium in agitation and ensuring the gas exchange. Then the CYP2E1 activity is determined once again in the way described in the foregoing.

Take `c1ccccc1` [benzene]: the “CYP2E1 activity (O-dealkylation of 7-ethoxy-4-trifluoromethylcoumarin to 7-hydroxy-4-trifluoromethylcoumarin)” value is listed as “distinct increase of the basic activity with increasing benzene concentration”.
